Data taken from patent US9481676B2, “Azepino[4,5-B]indoles and methods of use” (Medivation Technologies, Inc., priority 2008, dated 2016).

The molecules below were run against T1, human recombinant adrenergic α2A receptor (Homo sapiens, UniProt P08913) (assay: Adrenergic alpha2A radioligand binding ([3H]MK-912)). Conditions: compound at 1 μM; read-out: Adrenergic (1 μM) α2A, percent inhibition of specific binding.
T1 construct: expressed in transfected cells; host or cells: insect Sf9 cells
T1 sequence (P08913 1-465): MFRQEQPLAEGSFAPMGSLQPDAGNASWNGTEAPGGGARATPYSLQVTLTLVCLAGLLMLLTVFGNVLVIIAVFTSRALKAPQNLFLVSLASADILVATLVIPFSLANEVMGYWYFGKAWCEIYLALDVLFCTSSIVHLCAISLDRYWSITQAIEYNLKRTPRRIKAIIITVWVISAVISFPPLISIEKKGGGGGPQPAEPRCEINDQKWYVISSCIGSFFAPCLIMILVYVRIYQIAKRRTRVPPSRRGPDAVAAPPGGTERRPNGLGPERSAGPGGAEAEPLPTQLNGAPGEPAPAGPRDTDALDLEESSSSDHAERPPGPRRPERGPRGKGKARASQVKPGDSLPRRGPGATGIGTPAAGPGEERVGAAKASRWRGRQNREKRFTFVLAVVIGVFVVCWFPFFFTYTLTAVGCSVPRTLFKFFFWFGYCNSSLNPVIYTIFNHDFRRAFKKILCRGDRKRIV
How it was run: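 Membranes of Sf9 cells expressing human recombinant α2A receptor were incubated with compound and 1 nM [3H]MK-912 for 60 min at 25 °C in 50 mM Tris-HCl pH 7.4, 12.5 mM MgCl2, 2 mM EDTA. Nonspecific binding: 10 μM WB-4101.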
`Cc1ccc2c(c1)c1c(n2CC(=O)N2CCNCC2)CCN(C)CC1` [Compound No. 224, 2-(3,9-dimethyl-2,3,4,5-tetrahydroazepino[4,5-b]indol-6(1H)-yl)-1-(piperazin-1-yl)ethanone] was tested, and the inhibition at 1 µM was 8%. `CN1CCc2c(n(/C=C/c3ccccc3F)c3ccc(Cl)cc23)CC1` [Compound No. 83, (E)-9-chloro-6-(2-fluorostyryl)-3-methyl-1,2,3,4,5,6-hexahydro azepino[4,5-b]indole] was tested, and the inhibition at 1 µM was 99%. `COc1ccc(/C=C/n2c3c(c4cc(Cl)ccc42)CCN(C)CC3)cc1OC` [Compound No. 226, (E)-9-chloro-6-(3,4-dimethoxystyryl)-3-methyl-1,2,3,4,5,6-hexahydroazepino[4,5-b]indole] gave an inhibition at 1 µM of 93%. In the case of `COc1ccc(/C=C/n2c3c(c4cc(Cl)ccc42)CCN(C)CC3)cc1` [Compound No. 78, 6-(4-methoxystyryl)-9-chloro-1,2,3,4,5,6-hexahydro-3-methylazepino[4,5-b]indole], the inhibition at 1 µM was 83%. With `C/C(=C/n1c2c(c3cc(C)ccc31)CCN(C)CC2)c1ccc(Cl)cc1Cl` [Compound No. 174, (Z)-6-(2-(2,4-dichlorophenyl)prop-1-enyl)-1,2,3,4,5,6-hexahydro-3,9-dimethylazepino[4,5-b]indole] the inhibition at 1 µM was 101%. For `CN1CCc2c(n(/C=C/c3ccccc3)c3ccc(Cl)cc23)CC1` [Compound No. 228, (E)-9-chloro-3-methyl-6-styryl-1,2,3,4,5,6-hexahydroazepino[4,5-b]indole], the inhibition at 1 µM was 102%. With `Cc1ccc2c(c1)c1c(n2CC(=O)Nc2ccccc2)CCN(C)CC1` [Compound No. 79, 2-(2,3,4,5-tetrahydro-3,9-dimethylazepino[4,5-b]indol-6(1H)-yl)-N-phenylacetamide] the inhibition at 1 µM was 17%. In the case of `COc1ccc(/C=C/n2c3c(c4cc(C)ccc42)CCN(C)CC3)cc1F` [Compound No. 180, (E)-6-(3-fluoro-4-methoxystyryl)-1,2,3,4,5,6-hexahydro-3,9-dimethylazepino[4,5-b]indole], the inhibition at 1 µM was 99%. For `CN1CCc2c(n(CCc3ccc(C(F)(F)F)nc3)c3ccc(Cl)cc23)CC1` [Compound No. 1, 9-chloro-6-(2-(6-(trifluoromethyl)pyridin-3-yl)ethyl)-1,2,3,4,5,6-hexahydro-3-methylazepino[4,5-b]indole], the inhibition at 1 µM was 90%. `COc1ccc(C(O)Cn2c3c(c4cc(Cl)ccc42)CCN(C)CC3)cc1OC` (stereo not drawn) [Compound No. 77, 2-(9-chloro-2,3,4,5-tetrahydro-3-methylazepino[4,5-b]indol-6(1H)-yl)-1-(3,4-dimethoxyphenyl)ethanol] gave an inhibition at 1 µM of 85%. For `CC1CCN(C(=O)Cn2c3c(c4cc(Cl)ccc42)CCN(C)CC3)CC1` [Compound No. 76, 2-(9-chloro-2,3,4,5-tetrahydro-3-methylazepino[4,5-b]indol-6(1H)-yl)-1-(4-methylpiperidin-1-yl)ethanone], the inhibition at 1 µM was 7%. Molecule `C/C(=C/n1c2c(c3cc(Cl)ccc31)CCN(C)CC2)c1ccc(Cl)cc1Cl` [Compound No. 152, (Z)-9-chloro-6-(2-(2,4-dichlorophenyl)prop-1-enyl)-1,2,3,4,5,6-hexahydro-3-methylazepino[4,5-b]indole] has an inhibition at 1 µM of 93%. With `Cc1cncc(CCn2c3c(c4cc(Cl)ccc42)CCN(C)CC3)c1` [Compound No. 3, 9-chloro-3-methyl-6-(2-(5-methylpyridin-3-yl)ethyl)-1,2,3,4,5,6-hexahydroazepino[4,5-b]indole] the inhibition at 1 µM was 91%. Work on `C=C(Cn1c2c(c3cc(Cl)ccc31)CCN(C)CC2)c1ccc(F)cc1` [Compound No. 82, 9-chloro-6-(2-(4-fluorophenyl)allyl)-3-methyl-1,2,3,4,5,6-hexahydroazepino[4,5-b]indole] yielded an inhibition at 1 µM of 96%. `Cc1ccc2c(c1)c1c(n2CC(=O)N2CCC(C)CC2)CCN(C)CC1` [Compound No. 225, 2-(3,9-dimethyl-2,3,4,5-tetrahydroazepino[4,5-b]indol-6(1H)-yl)-1-(4-methylpiperidin-1-yl)ethanone] showed an inhibition at 1 µM of 0%. For `COc1ccc(C(O)Cn2c3c(c4cc(C)ccc42)CCN(C)CC3)cc1OC` (stereo not drawn) [Compound No. 227, 1-(3,4-dimethoxyphenyl)-2-(3,9-dimethyl-2,3,4,5-tetrahydroazepino[4,5-b]indol-6(1H)-yl)ethanol], the inhibition at 1 µM was 70%. `COc1ccc(/C=C/n2c3c(c4cc(Cl)ccc42)CCN(C)CC3)cc1F` [Compound No. 158, (E)-6-(3-fluoro-4-methoxystyryl)-9-chloro-1,2,3,4,5,6-hexahydro-3-methylazepino[4,5-b]indole] showed an inhibition at 1 µM of 99%. Molecule `C/C(=C\n1c2c(c3cc(Cl)ccc31)CCN(C)CC2)c1ccc(F)cc1` [Compound No. 2, 9-chloro-6-((E)-2-(4-fluorophenyl)prop-1-enyl)-1,2,3,4,5,6-hexahydro-3-methylazepino[4,5-b]indole] has an inhibition at 1 µM of 96%.
